In the supplement of paper PMC6045584:
± gives the standard deviation of the averaged measurements.

Experiments:
[1] = compound: CNCc1ccc(-c2[nH]c3cc(F)cc4c3c2CCNC4=O)cc1; assay: surviving fraction relative to DMSO-only wells; higher = less growth inhibition; conditions: exposure time: 5 days
Outline: (§1)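 For each tumour cell line, log-phase cells were put into 384-well plates at 250–500 cells per well, then after 24 hours exposed continuously for five days to inhibitors at 0.5, 1, 5, 10, 50, 100, 500 and 1000 nM. Viability was assessed by CellTiter-Glo luminescence, with surviving fraction expressed relative to the median of DMSO-only wells. Lines were screened three times and retained only if replicate Pearson r exceeded 0.7 and median Z' exceeded 0.3.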

FORETINIB = compound: COc1cc2c(Oc3ccc(NC(=O)C4(C(=O)Nc5ccc(F)cc5)CC4)cc3F)ccnc2cc1OCCCN1CCOCC1 [FORETINIB]; assay: as above; conditions: exposure time: 5 days
Outline: as §1

Row | Test System | surviving fraction ([1]; 0.5 nM) | surviving fraction ([1]; 1 nM) | surviving fraction ([1]; 5 nM) | surviving fraction ([1]; 10 nM) | surviving fraction ([1]; 50 nM) | surviving fraction ([1]; 100 nM) | surviving fraction ([1]; 500 nM) | surviving fraction ([1]; 1000 nM) | surviving fraction (FORETINIB; 0.5 nM) | surviving fraction (FORETINIB; 1 nM) | surviving fraction (FORETINIB; 5 nM) | surviving fraction (FORETINIB; 10 nM) | surviving fraction (FORETINIB; 50 nM) | surviving fraction (FORETINIB; 100 nM) | surviving fraction (FORETINIB; 500 nM) | surviving fraction (FORETINIB; 1000 nM)
1 | BT20 BREAST | 1.09 ± 0.095 | 1.05 ± 0.055 | 1.03 ± 0.081 | 1.04 ± 0.059 | 0.792 ± 0.14 | 0.814 ± 0.046 | 0.815 ± 0.11 | 0.872 ± 0.014 | 1.11 ± 0.032 | 1.14 ± 0.13 | 1.12 ± 0.026 | 1.13 ± 0.045 | 1.22 ± 0.12 | 1.13 ± 0.037 | 0.382 ± 0.091 | 0.136 ± 0.017
2 | BT549 BREAST | 0.958 ± 0.011 | 1.01 ± 0.16 | 0.972 ± 0.078 | 1.04 ± 0.081 | 0.753 ± 0.13 | 0.818 ± 0.073 | 0.828 ± 0.069 | 0.881 ± 0.056 | 1.09 ± 0.059 | 1.08 ± 0.059 | 1.09 ± 0.15 | 1.12 ± 0.089 | 1.08 ± 0.12 | 1.15 ± 0.12 | 0.701 ± 0.022 | 0.222 ± 0.014
3 | C33A CERVIX | 0.991 ± 0.071 | 0.993 ± 0.078 | 1.02 ± 0.085 | 0.937 ± 0.095 | 1.09 ± 0.13 | 0.963 ± 0.041 | 1.25 ± 0.024 | 0.707 ± 0.0089 | 1.02 ± 0.059 | 1.06 ± 0.086 | 1.1 ± 0.042 | 1.14 ± 0.098 | 1.03 ± 0.041 | 1.04 ± 0.047 | 0.596 ± 0.057 | 0.508 ± 0.029
4 | CADOES1 SOFT TISSUE | 1 ± 0.21 | 0.975 ± 0.19 | 0.903 ± 0.081 | 0.838 ± 0.045 | 1.02 ± 0.068 | 0.856 ± 0.12 | 0.799 ± 0.14 | 0.715 ± 0.22 | 0.986 ± 0.23 | 0.887 ± 0.17 | 0.988 ± 0.25 | 0.876 ± 0.043 | 0.947 ± 0.02 | 0.795 ± 0.1 | 0.109 ± 0.011 | 0.088 ± 0.0062
5 | CAL51 BREAST | 0.935 ± 0.033 | 0.96 ± 0.04 | 0.927 ± 0.023 | 0.848 ± 0.052 | 0.954 ± 0.019 | 0.819 ± 0.021 | 0.706 ± 0.035 | 0.604 ± 0.021 | 0.991 ± 0.039 | 0.964 ± 0.053 | 1.04 ± 0.011 | 0.9858 ± 0.0063 | 0.993 ± 0.064 | 0.979 ± 0.052 | 0.162 ± 0.0044 | 0.136 ± 0.01
